SMILES strings stand for the structures. Values joined by “and” are separate entries in the source; they are usually repeats but may differ in a detail not shown here. Equal values may be shown once. Some results are limits rather than exact numbers.

This assay has as its system LG0703-F948-PDC spheroids with HUVEC/MSC, viability. Briefly: Anticancer human tumor LG0703-F948-PDC patient-derived lung adenocarcinoma cell line growth inhibition [IpAb]. Particulars: for viability, T/C: stronger effect = lower value. The essentials:
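Multi-cell spheroids of 60% tumour cells, 25% HUVEC and 15% MSC in ultra-low-attachment U-bottom wells, treated with agents combined with ipatasertib or abemaciclib. Half-log ranges top out near clinical Cmax, or 10 microM when Cmax is unknown.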

Where [1] appears, read: curve of first compound, second compound 0.01 µM.
Where [2] appears, read: curve of first compound, second compound 0.0316 µM.
The mark [3] stands for this setting: curve of first compound, second compound 0.1 µM.
Setting [4] is: curve of first compound, second compound 0.316 µM.
Setting [5] is: curve of first compound, second compound 1 µM.
The mark [6] stands for this setting: second compound 0.1 µM, first compound 0.000316 µM.
[7] abbreviates: second compound 0.1 µM, first compound 0.001 µM.
The mark [8] stands for this setting: second compound 0.1 µM, first compound 0.00316 µM.
The mark [9] stands for this setting: second compound 0.1 µM, first compound 0.01 µM.
[10] abbreviates: second compound 0.1 µM, first compound 0.0316 µM.
Setting [11] is: second compound 0.1 µM, first compound 0.1 µM.
The mark [12] stands for this setting: second compound 0.316 µM, first compound 0.000316 µM.
[13] abbreviates: second compound 0.316 µM, first compound 0.001 µM.
The mark [14] stands for this setting: second compound 0.316 µM, first compound 0.00316 µM.
[15] abbreviates: second compound 0.316 µM, first compound 0.01 µM.
The mark [16] stands for this setting: second compound 0.316 µM, first compound 0.0316 µM.
Where [17] appears, read: second compound 0.316 µM, first compound 0.1 µM.
Setting [18] is: second compound 1 µM, first compound 0.000316 µM.
The mark [19] stands for this setting: second compound 1 µM, first compound 0.001 µM.
[20] abbreviates: second compound 1 µM, first compound 0.00316 µM.
The mark [21] stands for this setting: second compound 1 µM, first compound 0.01 µM.
Where [22] appears, read: second compound 1 µM, first compound 0.0316 µM.
[23] abbreviates: second compound 1 µM, first compound 0.1 µM.
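Also: spheroids exposed to compounds for seven days before readout.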
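For viability, T/C in this document: T/C percent relative to DMSO vehicle wells set as 100% viability.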

As to `Cn1cnc2c(F)c(Nc3ccc(Br)cc3Cl)c(C(=O)NOCCO)cc21` + CCN1CCN(Cc2ccc(Nc3ncc(F)c(-c4cc(F)c5nc(C)n(C(C)C)c5c4)n3)nc2)CC1, the 50% inhibitory concentration (IC50) turned out to be 270 nM under setting [1]; 132 nM under setting [2]; 54.1 nM under setting [3]; 288 nM under setting [4]; 41.6 nM under setting [5]. In addition, the viability, T/C is 83% (second compound 0.01 µM, first compound 0.00949 µM); 74.6% (second compound 0.01 µM, first compound 0.03 µM); 55.4% (second compound 0.01 µM, first compound 0.0949 µM); 52.6% (second compound 0.01 µM, first compound 0.3 µM); 46.7% (second compound 0.01 µM, first compound 0.949 µM); 45% (second compound 0.01 µM, first compound 3 µM). The viability, T/C was 80.4% (second compound 0.0316 µM, first compound 0.00949 µM); 61.5% (second compound 0.0316 µM, first compound 0.03 µM); 51.9% (second compound 0.0316 µM, first compound 0.0949 µM); 46.2% (second compound 0.0316 µM, first compound 0.3 µM); 46.1% (second compound 0.0316 µM, first compound 0.949 µM); 39.8% (second compound 0.0316 µM, first compound 3 µM). Further, the viability, T/C was 68.8% (second compound 0.1 µM, first compound 0.00949 µM); 54.5% (second compound 0.1 µM, first compound 0.03 µM); 43.9% (second compound 0.1 µM, first compound 0.0949 µM); 44.1% (second compound 0.1 µM, first compound 0.3 µM); 45.2% (second compound 0.1 µM, first compound 0.949 µM); 37% (second compound 0.1 µM, first compound 3 µM). Besides, the viability, T/C is 72.7% (second compound 0.316 µM, first compound 0.00949 µM); 64.9% (second compound 0.316 µM, first compound 0.03 µM); 48% (second compound 0.316 µM, first compound 0.0949 µM); 54.4% (second compound 0.316 µM, first compound 0.3 µM); 48.8% (second compound 0.316 µM, first compound 0.949 µM); 41.7% (second compound 0.316 µM, first compound 3 µM). The viability, T/C was 70.1% (second compound 1 µM, first compound 0.00949 µM); 53.6% (second compound 1 µM, first compound 0.03 µM); 38.4% (second compound 1 µM, first compound 0.0949 µM); 44% (second compound 1 µM, first compound 0.3 µM); 39.2% (second compound 1 µM, first compound 0.949 µM); 41.5% (second compound 1 µM, first compound 3 µM).
As to `CC(C)n1nc(-c2ccc3oc(N)nc3c2)c2c(N)ncnc21` + CCN1CCN(Cc2ccc(Nc3ncc(F)c(-c4cc(F)c5nc(C)n(C(C)C)c5c4)n3)nc2)CC1, the IC50 runs as follows: under setting [1], 4.38 nM; under setting [2], 3.3 nM; under setting [3], 4.23 nM; under setting [4], 6.16 nM; under setting [5], 3.98 nM. The viability, T/C (second compound 0.01 µM, first compound 0.000316 µM) is 112%; the viability, T/C (second compound 0.01 µM, first compound 0.001 µM) was 78.6%; the viability, T/C (second compound 0.01 µM, first compound 0.00316 µM) was 56.5%; the viability, T/C (second compound 0.01 µM, first compound 0.01 µM) is 38%; the viability, T/C (second compound 0.01 µM, first compound 0.0316 µM) was 24%; the viability, T/C (second compound 0.01 µM, first compound 0.1 µM) is 21.4%. In addition, the viability, T/C is, setting by setting: (second compound 0.0316 µM, first compound 0.000316 µM) 87.9%; (second compound 0.0316 µM, first compound 0.001 µM) 70.1%; (second compound 0.0316 µM, first compound 0.00316 µM) 52%; (second compound 0.0316 µM, first compound 0.01 µM) 33.9%; (second compound 0.0316 µM, first compound 0.0316 µM) 22.3%; (second compound 0.0316 µM, first compound 0.1 µM) 21.8%. Further, the viability, T/C by setting is: under setting [6], 87.4%; under setting [7], 71.2%; under setting [8], 52.1%; under setting [9], 40.5%; under setting [10], 29.3%; under setting [11], 22.3%. Also, the viability, T/C under setting [12] is 82.5%; the viability, T/C under setting [13] is 77.1%; the viability, T/C under setting [14] is 58.4%; the viability, T/C under setting [15] is 43%; the viability, T/C under setting [16] is 32%; the viability, T/C under setting [17] is 24.8%. For the same compound, the viability, T/C is 90% under setting [18]; 65% under setting [19]; 48.1% under setting [20]; 46.6% under setting [21]; 44.1% under setting [22]; 28.8% under setting [23].
In the case of `COc1c(OCCCN2CCOCC2)ccc2c3n(c(=NC(=O)c4cnc(N)nc4)nc12)CCN3`, the viability, T/C is 96.2% and 95.4% (compound 0.00316 µM); 78.3% and 87.8% (compound 0.01 µM); 56.1% and 63.4% (compound 0.0316 µM); 20.8% and 24% (compound 0.1 µM); 6.09% and 7.35% (compound 0.316 µM); 3.7% and 4.95% (compound 1 µM). The IC50 (curve of compound) is 35.6 nM and 46.5 nM.
As for `CC(C)NCC(C(=O)N1CCN(c2ncnc3c2C(C)CC3O)CC1)c1ccc(Cl)cc1` (stereo unspecified), the viability, T/C (compound 0.1 µM) was 81% [middle of 13 runs]; the viability, T/C (compound 0.316 µM) was 64.2% [middle of 13 runs]; the viability, T/C (compound 3.16 µM) is 44.4% [middle of 13 runs]; the viability, T/C (compound 10 µM) was 40.4% [middle of 13 runs].
As for `CC(C)n1nc(-c2ccc3oc(N)nc3c2)c2c(N)ncnc21` + CC(C)NCC(C(=O)N1CCN(c2ncnc3c2C(C)CC3O)CC1)c1ccc(Cl)cc1, the 50% inhibitory concentration (IC50) runs as follows: under setting [3], 2.49 nM; under setting [4], 0.914 nM; under setting [5], less than 0.316 nM; (curve of first compound, second compound 3.16 µM) less than 0.316 nM; (curve of first compound, second compound 10 µM) less than 0.316 nM. The viability, T/C under setting [6] is 77.5%; the viability, T/C under setting [7] is 64.8%; the viability, T/C under setting [8] was 47.5%; the viability, T/C under setting [9] was 25.9%; the viability, T/C under setting [10] is 18.9%; the viability, T/C under setting [11] is 18.9%. Moreover, the viability, T/C runs as follows: under setting [12], 65%; under setting [13], 49%; under setting [14], 32%; under setting [15], 21.4%; under setting [16], 16.4%; under setting [17], 12.6%. In addition, the viability, T/C reads like this: under setting [18], 49.1%; under setting [19], 37%; under setting [20], 22.8%; under setting [21], 14%; under setting [22], 11.2%; under setting [23], 9.31%. For the same compound, the viability, T/C runs as follows: (second compound 3.16 µM, first compound 0.000316 µM) 39.7%; (second compound 3.16 µM, first compound 0.001 µM) 24.9%; (second compound 3.16 µM, first compound 0.00316 µM) 15.1%; (second compound 3.16 µM, first compound 0.01 µM) 8.55%; (second compound 3.16 µM, first compound 0.0316 µM) 7.95%; (second compound 3.16 µM, first compound 0.1 µM) 7.22%. Also, the viability, T/C runs as follows: (second compound 10 µM, first compound 0.000316 µM) 31.7%; (second compound 10 µM, first compound 0.001 µM) 18.1%; (second compound 10 µM, first compound 0.00316 µM) 10.4%; (second compound 10 µM, first compound 0.01 µM) 16.2%; (second compound 10 µM, first compound 0.0316 µM) 5.1%; (second compound 10 µM, first compound 0.1 µM) 29.5%.

For orientation: IC50 means the concentration that inhibits the measured activity by half. Broadly, the viability, T/C is the ratio of treated to control.

The values above are taken from PubChem BioAssay AID2060330 (Molecular Pharmacology Branch, DTP, NCI, 2025).
